# Source: BindingDB's records for PubMed 33228976 (Massachusetts College of Pharmacy and Health Sciences …, 2021)
# Target: GTPase KRas (Homo sapiens, UniProt P01116)
# Assay: Antiproliferative activity against human COLO 320DM cells harboring wild type KRAS assessed as reduction in cell viability incubated for 24 hrs in presence of MVA
# Sequence of GTPase KRas (P01116 whole entry): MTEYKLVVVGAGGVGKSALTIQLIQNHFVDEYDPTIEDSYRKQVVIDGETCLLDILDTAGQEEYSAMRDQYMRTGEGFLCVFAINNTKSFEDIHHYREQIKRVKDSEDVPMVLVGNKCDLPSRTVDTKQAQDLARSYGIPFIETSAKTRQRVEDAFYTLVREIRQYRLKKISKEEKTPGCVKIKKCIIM
structure (smiles),measurement,value
"CCCC[C@@H](C)C=C(C)C=C(C)C(=O)NC1=C[C@@](O)(C=CC=CC=CC(=O)NC2C(=O)CCC2=O)[C@@H]2O[C@@H]2C1=O [(R)-2,4,6-Trimethyl-deca-2,4-dienoic acid {(1S,5S,6R)-5-hydroxy-5-[(1E,3E,5E)-6-(2-hydroxy-5-oxo-cyclopent-1-enylcarbamoyl)-hexa-1,3,5-trienyl]-2-oxo-7-oxa-bicyclo[4.1.0]hept-3-en-3-yl}-amide]",IC50,3.58 µM
